Values of other authors in patent US7074832B2, “Compositions containing antimicrobials and urea for the treatment of dermatological disorders and methods for their use” (Bradley Pharmaceuticals, Inc., priority 2001, dated 2006).
Converted amounts (≈) assume the structure as drawn.

Columns and labels:
cyclooxygenase = conditions: qualitative statement in the description

Row | solubility in alcohol (alcohol) | solubility in water (water, 20° C.) [µg/mL] | Structure (SMILES) | cyclooxygenase activity inhibition (cyclooxygenase)
1 | slightly soluble | 10000 (≈ 58.4 mM) | Cc1ncc([N+](=O)[O-])n1CCO [Metronidazole, 2-methyl-5-nitro-1H-imidazole-1-ethanol] | –
2 | – | – | Cc1c(C)c2c(c(C)c1O)CC[C@@](C)(CCC[C@H](C)CCC[C@H](C)CCCC(C)C)O2 [alpha tocopherol] | not
3 | – | – | Cc1c(O)cc2c(c1C)O[C@](C)(CCC[C@H](C)CCC[C@H](C)CCCC(C)C)CC2 [gamma tocopherol] | inhibit cyclooxygenase activity
4 | – | – | Cc1c(O)cc2c(c1C)OC(C)(CCC(=O)O)CC2 (stereo not drawn) [gamma-CEHC, 2,7,8-trimethyl-2-(beta-carboxyethyl)-6-hydroxychroman] | inhibit cyclooxygenase activity
